According to US12492173B2, “Herbicidal substituted N-tetrazolyl aryl carboxamides” (Bayer Aktiengesellschaft, priority 2019, dated 2025):

Legend:
Assay type in all cases: in vivo
[1] = test system: Abutilon theophrasti; assay: Pre-emergence herbicidal action, ABUTH; parameters: key to Herbicidal action against ABUTH: % activity: 100 = plants have died, 0 = like control plants; details: comparative experiment
Procedure, shortened: (§1)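 Pre-emergence soil spray over sandy loam-covered seeds; greenhouse 3 weeks; % visual damage (0% = control, 100% = dead).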

[2] = test system: Cyperus esculentus; assay: Pre-emergence herbicidal action, CYPES; parameters: key: % activity: 100 = plants have died, 0 = like control plants; details: comparative experiment
Excerpt: (§2) 1. Pre-Emergence Herbicidal Action Against Harmful Plants Seeds of monocotyledonous and dicotyledonous weed plants and crop plants are laid out in sandy loam soil in wood-fiber pots and covered with soil. The compounds of the invention, formulated in the form of wettable powders (WP) or as emulsion concentrates (EC), are then applied to the surface of the covering soil in the form of an aqueous suspension or emulsion at a water application rate equating to 600 to 800 l/ha, with addition of 0.2% wetting agent. After the treatment, the pots are placed in a greenhouse and kept under good growth conditions for the trial plants. The damage to the test plants is scored visually after a test period of 3 weeks by comparison with untreated controls (herbicidal activity in percent (%): 100% activity=the plants have died, 0% activity=like control plants). […] The tables below illustrate, in an exemplary manner, the […] herbicidal action of the compounds according to the invention, the herbicidal activity being stated in percent. [table] In the experiments that follow, herbicidal action of numerous inventive compounds and the known compounds that are structurally closest from D1 (WO 2012/028579 A1) and D2 (WO 2018/202535 A1) were compared under the above-specified conditions by the pre-emergence and post-emergence method. The example numbers given in the tables relate to the compounds disclosed in the respective documents. In addition to the compounds disclosed in D1 and D2, the following compounds V-1 to V-14 that are encompassed by D1 or D2 but are not compounds specified therein were used in the comparative experiments: • V-1: 2-(methylsulfanyl)-3-(methylsulfinyl)-N-(1-methyl-1H-tetrazol-5-yl)-4-(trifluoromethyl)benzamide • V-2: 2-(methylsulfanyl)-3-(methylsulfonyl)-N-(1-methyl-1H-tetrazol-5-yl)-4-(trifluoromethyl)benzamide • V-3: 2,3-bis(ethylsulfanyl)-N-(1-methyl-1H-tetrazol-5-yl)-4-(trifluoromethyl)benzamide • V-4: 2-chloro-3-(ethylsulfanyl)-N-(1-methyl-1H-tetrazol-5-yl)-4-(trifluoromethyl)benzamide • V-5: 2-chloro-4-iodo-3-(methylsulfanyl)-N-(1-methyl-1H-tetrazol-5-yl)benzamide • V-6: 2-chloro-4-iodo-3-(methylsulfinyl)-N-(1-methyl-1H-tetrazol-5-yl)benzamide • V-7: 2-chloro-4-iodo-3-(methylsulfonyl)-N-(1-methyl-1H-tetrazol-5-yl)benzamide • V-8: 2-bromo-3-(methylsulfanyl)-N-(1-methyl-1H-tetrazol-5-yl)-4-(trifluoromethyl)benzamide • V-9: 2-bromo-3-(methylsulfinyl)-N-(1-methyl-1H-tetrazol-5-yl)-4-(trifluoromethyl)benzamide • V-10: 2-bromo-3-(methylsulfonyl)-N-(1-methyl-1H-tetrazol-5-yl)-4-(trifluoromethyl)benzamide • V-11: 2-bromo-3-(ethylsulfanyl)-N-(1-methyl-1H-tetrazol-5-yl)-4-(trifluoromethyl)benzamide • V-12: 2-bromo-3-(ethylsulfinyl)-N-(1-methyl-1H-tetrazol-5-yl)-4-(trifluoromethyl)benzamide • V-13: 2-bromo-3-(ethylsulfonyl)-N-(1-methyl-1-1H-tetrazol-5-yl)-4-(trifluoromethyl)benzamide • V-14: 2-cyclopropyl-3-(ethylsulfanyl)-N-(1-methyl-1H-tetrazol-5-yl)-4-(trifluoromethyl)benzamide Herbicidal Pre-Emergence Action: […]

[3] = test system: Alopecurus myosuroides; assay: Post-emergence herbicidal action, ALOMY; parameters: key: % herbicidal action vs untreated; 100 = plants died, 0 = like control; details: comparative experiment, post-emergence, 5 g of a.i./ha
Procedure, shortened: (§3)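 Percent herbicidal effect was judged by eye against untreated controls around 3 weeks after foliar treatment, where 100% meant dead plants. Spraying took place at the one-leaf stage using wettable powder or emulsion concentrate diluted in water (600 to 800 l/ha) with added wetting agent at 0.2%.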

[4] = test system: Stellaria media; assay: Post-emergence herbicidal action, STEME; parameters: key: % herbicidal action vs untreated; 100 = plants died, 0 = like control; details: comparative experiment, post-emergence, 5 g of a.i./ha
Procedure, shortened: as §3

[5] = test system: Polygonum convolvulus; assay: Post-emergence herbicidal action, POLCO; details: comparative experiment, post-emergence, 5 g of a.i./ha
Procedure, shortened: as §3

[6] = test system: Matricaria inodora; assay: Post-emergence herbicidal action, MATIN; parameters: key: % herbicidal action vs untreated; 100 = plants died, 0 = like control; details: comparative experiment, post-emergence
Procedure, shortened: as §3

[7] = test system: Avena fatua; assay: Post-emergence herbicidal action, AVEFA; parameters: key: % herbicidal action vs untreated; 100 = plants died, 0 = like control; details: comparative experiment, post-emergence, 5 g of a.i./ha
Procedure, shortened: as §3

[8] = test system: Veronica persica; assay: Pre-emergence herbicidal action, VERPE; parameters: key to Herbicidal action against VERPE: % activity: 100 = plants have died, 0 = like control plants; details: comparative experiment, 20 g of a.i./ha
Procedure, shortened: as §1

[9] = test system: Alopecurus myosuroides; assay: Pre-emergence herbicidal action, ALOMY; parameters: key: % activity: 100 = plants have died, 0 = like control plants; details: comparative experiment
Excerpt: as §2

[10] = test system: Veronica persica; assay: Post-emergence herbicidal action, VERPE; parameters: key: % herbicidal action vs untreated; 100 = plants died, 0 = like control; details: comparative experiment, post-emergence
Procedure, shortened: as §3

[11] = test system: Lolium multiflorum; assay: Post-emergence herbicidal action, LOLMU; parameters: key: % herbicidal action: 100 = plants died, 0 = like control; details: comparative experiment, post-emergence, 5 g of a.i./ha
Description: [table] 2. Post-Emergence Herbicidal Action Against Harmful Plants Seeds of monocotyledonous and dicotyledonous weed and crop plants are laid out in sandy loam soil in wood-fiber pots, covered with soil and cultivated in a greenhouse under good growth conditions. 2 to 3 weeks after sowing, the test plants are treated at the one-leaf stage. The compounds of the invention, formulated in the form of wettable powders (WP) or as emulsion concentrates (EC), are then sprayed onto the green parts of the plants in the form of an aqueous suspension or emulsion at a water application rate equating to 600 to 800 l/ha, with addition of 0.2% wetting agent. After the test plants have been left to stand in the greenhouse under optimal growth conditions for about 3 weeks, the action of the preparations is assessed visually in comparison to untreated controls (herbicidal action in percent (%): 100% activity=the plants have died, 0% activity=like control plants). […] The tables below illustrate, in an exemplary manner, the post-emergence herbicidal action of the compounds according to the invention, the herbicidal activity being stated in percent. In the experiments that follow, herbicidal action of numerous inventive compounds and the known compounds that are structurally closest from D1 (WO 2012/028579 A1) and D2 (WO 2018/202535 A1) were compared under the above-specified conditions by the pre-emergence and post-emergence method. The example numbers given in the tables relate to the compounds disclosed in the respective documents. In addition to the compounds disclosed in D1 and D2, the following compounds V-1 to V-14 that are encompassed by D1 or D2 but are not compounds specified therein were used in the comparative experiments: • V-1: 2-(methylsulfanyl)-3-(methylsulfinyl)-N-(1-methyl-1H-tetrazol-5-yl)-4-(trifluoromethyl)benzamide • V-2: 2-(methylsulfanyl)-3-(methylsulfonyl)-N-(1-methyl-1H-tetrazol-5-yl)-4-(trifluoromethyl)benzamide • V-3: 2,3-bis(ethylsulfanyl)-N-(1-methyl-1H-tetrazol-5-yl)-4-(trifluoromethyl)benzamide • V-4: 2-chloro-3-(ethylsulfanyl)-N-(1-methyl-1H-tetrazol-5-yl)-4-(trifluoromethyl)benzamide • V-5: 2-chloro-4-iodo-3-(methylsulfanyl)-N-(1-methyl-1H-tetrazol-5-yl)benzamide • V-6: 2-chloro-4-iodo-3-(methylsulfinyl)-N-(1-methyl-1H-tetrazol-5-yl)benzamide • V-7: 2-chloro-4-iodo-3-(methylsulfonyl)-N-(1-methyl-1H-tetrazol-5-yl)benzamide • V-8: 2-bromo-3-(methylsulfanyl)-N-(1-methyl-1H-tetrazol-5-yl)-4-(trifluoromethyl)benzamide • V-9: 2-bromo-3-(methylsulfinyl)-N-(1-methyl-1H-tetrazol-5-yl)-4-(trifluoromethyl)benzamide • V-10: 2-bromo-3-(methylsulfonyl)-N-(1-methyl-1H-tetrazol-5-yl)-4-(trifluoromethyl)benzamide • V-11: 2-bromo-3-(ethylsulfanyl)-N-(1-methyl-1H-tetrazol-5-yl)-4-(trifluoromethyl)benzamide • V-12: 2-bromo-3-(ethylsulfinyl)-N-(1-methyl-1H-tetrazol-5-yl)-4-(trifluoromethyl)benzamide • V-13: 2-bromo-3-(ethylsulfonyl)-N-(1-methyl-1-1H-tetrazol-5-yl)-4-(trifluoromethyl)benzamide • V-14: 2-cyclopropyl-3-(ethylsulfanyl)-N-(1-methyl-1H-tetrazol-5-yl)-4-(trifluoromethyl)benzamide Herbicidal Pre-Emergence Action: […]

[12] = test system: Matricaria inodora; assay: Pre-emergence herbicidal action, MATIN; parameters: key to Herbicidal action against MATIN: % activity: 100 = plants have died, 0 = like control plants; details: comparative experiment, 20 g of a.i./ha
Procedure, shortened: as §1

[13] = test system: Setaria viridis; assay: Pre-emergence herbicidal action, SETVI; parameters: key to Herbicidal action against SETVI: % activity: 100 = plants have died, 0 = like control plants; details: comparative experiment
Procedure, shortened: as §1

[14] = test system: Echinochloa crus-galli; assay: Pre-emergence herbicidal action, ECHCG; details: Echinochloa crus-galli, 504 h, comparative experiment, 80 g of a.i./ha, read-out: Herbicidal action against ECHCG
Procedure, shortened: as §1

[15] = test system: Setaria viridis; assay: Post-emergence herbicidal action, SETVI; parameters: key: % herbicidal action vs untreated; 100 = plants died, 0 = like control; details: comparative experiment, post-emergence, 20 g of a.i./ha
Procedure, shortened: as §3

[16] = test system: Viola tricolor; assay: Pre-emergence herbicidal action, VIOTR; parameters: key to Herbicidal action against VIOTR: % activity: 100 = plants have died, 0 = like control plants; details: comparative experiment, 80 g of a.i./ha
Procedure, shortened: as §1

[17] = test system: Abutilon theophrasti; assay: Post-emergence herbicidal action, ABUTH; parameters: key: % herbicidal action vs untreated; 100 = plants died, 0 = like control; details: comparative experiment, post-emergence, 20 g of a.i./ha
Procedure, shortened: as §3

[18] = test system: Echinochloa crus-galli; assay: Post-emergence herbicidal action, ECHCG; parameters: key: % herbicidal action vs untreated; 100 = plants died, 0 = like control; details: comparative experiment, post-emergence, 20 g of a.i./ha
Procedure, shortened: as §3

[19] = test system: Amaranthus retroflexus; assay: Post-emergence herbicidal action, AMARE; parameters: key: % herbicidal action vs untreated; 100 = plants died, 0 = like control; details: comparative experiment, post-emergence, 20 g of a.i./ha
Procedure, shortened: as §3

[20] = test system: Stellaria media; assay: Pre-emergence herbicidal action, STEME; parameters: key to Herbicidal action against STEME: % activity: 100 = plants have died, 0 = like control plants; details: comparative experiment, 80 g of a.i./ha
Procedure, shortened: as §1

[21] = test system: Viola tricolor; assay: Post-emergence herbicidal action, VIOTR; parameters: key: % herbicidal action vs untreated; 100 = plants died, 0 = like control; details: comparative experiment, post-emergence, 20 g of a.i./ha
Procedure, shortened: as §3

## CCSc1c(C(F)(F)F)ccc(C(=O)Nc2nnnn2C)c1Cl [Example V-4, 2-chloro-3-(ethylsulfanyl)-N-(1-methyl-1H-tetrazol-5-yl)-4-(trifluoromethyl)benzamide, reference compound]
[1]; 20 g of a.i./ha
  Herbicidal action against ABUTH: 0
[2]; 20 g of a.i./ha
  Herbicidal action against CYPES: 0
[3]
  Herbicidal action against ALOMY: 40
[4]
  Herbicidal action against STEME: 60
[5]
  Herbicidal action against POLCO: 30
[6]; 5 g of a.i./ha
  Herbicidal action against MATIN: 60
[7]
  Herbicidal action against AVEFA: 30
[8]
  Herbicidal action against VERPE: 80
[9]; 20 g of a.i./ha
  Herbicidal action against ALOMY: 40
[10]; 5 g of a.i./ha
  Herbicidal action against VERPE: 80
[11]
  Herbicidal action against LOLMU: 10
[12]
  Herbicidal action against MATIN: 50
[13]; 20 g of a.i./ha
  Herbicidal action against SETVI: 60

## CC[S+]([O-])c1c(C(F)(F)F)ccc(C(=O)Nc2nnnn2C)c1Br (stereo not drawn) [Example V-12, 2-bromo-3-(ethylsulfinyl)-N-(1-methyl-1H-tetrazol-5-yl)-4-(trifluoromethyl)benzamide, reference compound]
[1]; 80 g of a.i./ha
  Herbicidal action against ABUTH: 0
[2]; 80 g of a.i./ha
  Herbicidal action against CYPES: 0
[14]
  pest or weed control at 80 g/ha: 0%
[6]; 20 g of a.i./ha
  Herbicidal action against MATIN: 0
[15]
  Herbicidal action against SETVI: 20
[16]
  Herbicidal action against VIOTR: 0
[17]
  Herbicidal action against ABUTH: 0
[9]; 80 g of a.i./ha
  Herbicidal action against ALOMY: 0
[10]; 20 g of a.i./ha
  Herbicidal action against VERPE: 0
[18]
  Herbicidal action against ECHCG: 0
[19]
  Herbicidal action against AMARE: 10
[20]
  Herbicidal action against STEME: 0
[13]; 80 g of a.i./ha
  Herbicidal action against SETVI: 0
[21]
  Herbicidal action against VIOTR: 0
